This data set can be described thus: Human HepG2 cell viability assay in 384 well format. The data set is classed as toxicity, cell-based. Details: dose 125 nL, time 70.5 hour; cytotoxicity at 70.5 h: concentration not given beside the values. The settings on record: HepG2 cells, read-out: Inhibition.

Consider `CC(C)c1ccc(C(O)CN2CCN(Cc3nccn3C)CC2)cc1` (configuration not stated), for which the cytotoxicity at 70.5 h was -3.6%. Regarding `CN(Cc1ccc(-n2cccn2)cc1)CC1CCCN1c1cccnn1` (configuration not stated), the cytotoxicity at 70.5 h was -10.7%. Turning to `CCc1n[nH]c(C2CN(C(=O)c3ccc4c(c3)CCCC4)CCO2)n1` (configuration not stated), the cytotoxicity at 70.5 h is -8.34%. As for `CCc1n[nH]c(C2CN(C(=O)c3ccc4c(c3)CCC4)CCO2)n1` (configuration not stated), the figure is -2.27%. In the case of `Cc1cnn(CC2CN(Cc3nc4ccccc4c(=O)[nH]3)CCO2)c1` (configuration not stated), the cytotoxicity at 70.5 h is -4.67%.

In the case of `Cc1cnn(CC2CN(CCCc3nc4ccccc4o3)CCO2)c1` (configuration not stated), the cytotoxicity at 70.5 h was -0.695%. Turning to `O=C(NCCn1ccnc1)NCC(c1ccco1)N1CCCC1` (configuration not stated), the cytotoxicity at 70.5 h was determined as 9.47%. For `Cc1cnn(CC2CCCN2C(=O)c2csc(C(C)C)n2)c1` (configuration not stated), the cytotoxicity at 70.5 h was 17.5%. As for `O=C(CNCCn1cccn1)NCC1(c2ccccc2)CCCC1`, the figure is 0.609%; as for `O=C(CNCCn1cccn1)NCC1(c2ccccc2)CCOCC1`, -7.33%; as for `c1ccc2oc(CCCN3CCOC(Cn4cncn4)C3)nc2c1` (configuration not stated), 14.6%. As for `O=C(NCCNc1ccc(C(F)(F)F)cn1)c1ccc(Br)cc1`, the cytotoxicity at 70.5 h worked out at 1.55%. For the compound `O=C(NCCNc1ccc(C(F)(F)F)cn1)c1ccc(F)cc1Cl`, the cytotoxicity at 70.5 h is -3.01%.

As to `O=C(NCCNc1ccc(C(F)(F)F)cn1)c1ccc(Cl)cc1F`, the cytotoxicity at 70.5 h amounted to 1.38%. Turning to `CCn1cc(NC(=O)NCCN2CCc3ccccc3C2)cn1`, the cytotoxicity at 70.5 h was 4.14%.

`CCN1CC(C(=O)NCc2cccnc2-n2cccn2)CC1=O` (configuration not stated): the cytotoxicity at 70.5 h is -7.76%.

In the case of `O=C(CCn1cncn1)NCC(c1ccco1)N1CCCC1` (configuration not stated), the cytotoxicity at 70.5 h is -4.48%. Take `O=C(CCc1ccsc1)N1CCC(N2CCNC2=O)CC1`: the cytotoxicity at 70.5 h is 3.98%. Take `CCc1nc(C2CCCN(C(=O)c3ccc(F)cc3)C2)no1` (configuration not stated): the cytotoxicity at 70.5 h is -0.043%. With `Cc1nc2c(c(C)c1CC(=O)NCc1ccccc1F)c(=O)[nH]n2C`, the cytotoxicity at 70.5 h is -7.35%. For the compound `Cc1nc2c(c(C)c1CC(=O)NCc1cccs1)c(=O)[nH]n2C`, the cytotoxicity at 70.5 h was -1.43%. To `Cc1cnn(CC2CCCN2C(=O)c2csc(C3CC3)n2)c1` (configuration not stated) belongs -0.994%. Take `CCc1nc(C2CCCN(C(=O)c3ccc(O)nc3)C2)no1` (configuration not stated): the cytotoxicity at 70.5 h came to 3.29%. To `CCc1nc(C2CCCN(C(=O)NCCOC)C2)no1` (configuration not stated) belongs 21.2%.

For the compound `CCn1c(C)nnc1CN(C)C1CCN(CC2CCC2)C1` (configuration not stated), the cytotoxicity at 70.5 h was 26.1%. In the case of `COc1ccsc1C(=O)N1CCCN(Cc2cscn2)CC1`, the cytotoxicity at 70.5 h is -5.36%. As for `CC(=O)N(Cc1ncc(C)o1)C1CCN(Cc2ccccc2F)C1` (configuration not stated), the figure is -2.68%. In the case of `CC(CNC(=O)Nc1cn[nH]c1)N1CCCC1` (configuration not stated), the cytotoxicity at 70.5 h stood at 2.24%.

For the compound `Cc1nc(C)n(CC2CCCN(CC3CCCCC3)C2)n1` (configuration not stated), the cytotoxicity at 70.5 h is -1.64%. Turning to `COc1ccnc(N2CCN(C(=O)Cc3ccn(C(C)C)n3)CC2)n1`, the cytotoxicity at 70.5 h is -5.11%. Regarding `Cc1ccsc1C(=O)N1CCCN(Cc2cscn2)CC1`, the cytotoxicity at 70.5 h is -2.76%. To `CCc1nc(C2CCCN(C(=O)c3c(C)noc3C)C2)no1` (configuration not stated) belongs 20.6%. As for `Cc1nc(C)n(CC2CCCN2CCC(=O)N2CCCCC2)n1` (configuration not stated), the figure is -5.35%; as for `Cc1nc(C)n(CC2CCCN(CC(=O)N3CCCC3)C2)n1` (configuration not stated), -4.82%. Regarding `O=C(NCC(c1ccccc1)N1CCOCC1)Nc1cn[nH]c1` (configuration not stated), the cytotoxicity at 70.5 h is 1.36%. As to `COc1ccnc(N2CCN(C(=O)Cc3csc(C)n3)CC2)n1`, the cytotoxicity at 70.5 h was 1.2%. For `Cc1nnc(C2Cc3ccccc3CN2Cc2nc(C(C)C)no2)o1` (configuration not stated), the cytotoxicity at 70.5 h is 1.77%. As to `CCn1cnnc1CNC(=O)N1CCN(C(C)C)CC1`, the cytotoxicity at 70.5 h worked out at 26%. In the case of `Cc1nc(C)n(CC2CCCN(CCC(=O)NC3CCCCC3)C2)n1` (configuration not stated), the cytotoxicity at 70.5 h is -3.01%. For the compound `COc1ccc(CC(=O)N2CCCCC2Cn2cc(C)cn2)cc1F` (configuration not stated), the cytotoxicity at 70.5 h was found to be 2.82%. `O=C(c1sccc1C1CC1)N1CCCN(Cc2cscn2)CC1`: the cytotoxicity at 70.5 h is -0.238%.

Consider `COc1ccc(CC(=O)N2CCCC2Cn2cc(C)cn2)c(OC)c1` (configuration not stated), for which the cytotoxicity at 70.5 h is -0.475%. To `Cc1cnn(CC2CCCN2C(=O)CCc2ccc3c(c2)OCO3)c1` (configuration not stated) belongs 20.8%.

Turning to `CCc1ncncc1C(=O)NC1CCc2nc(C)cn2C1` (configuration not stated), the cytotoxicity at 70.5 h was -1.22%. Turning to `Cc1cn2c(n1)CCC(NC(=O)c1csc(C(C)C)n1)C2` (configuration not stated), the cytotoxicity at 70.5 h was -0.273%. To `CCc1nc(C2CCCN(C(=O)C(C)(C)NS(C)(=O)=O)C2)no1` (configuration not stated) belongs 0.741%.

`CCc1nc(CN2CCCC(NCc3ncc(C(C)(C)C)o3)C2)no1` (configuration not stated): the cytotoxicity at 70.5 h came to 8.8%. With `CCc1nc(CN2CCCC(NCc3nnc(C4CC4)o3)C2)no1` (configuration not stated), the cytotoxicity at 70.5 h is 0.376%. Take `CC(=O)N(Cc1ncc(C)o1)C1CCN(Cc2ccncc2Cl)C1` (configuration not stated): the cytotoxicity at 70.5 h is -1.73%.

On to `CC(=O)N(Cc1ncc(C)o1)C1CCN(Cc2noc(C)n2)C1` (configuration not stated), for which the cytotoxicity at 70.5 h is -5.31%.

Regarding `CN(C)c1cc(CNC(=O)c2ccc(=O)[nH]n2)ccn1`, the cytotoxicity at 70.5 h came out at 1.83%.

With `O=C(NCCNc1ccc(C(F)(F)F)cn1)c1ccc(Br)cc1F`, the cytotoxicity at 70.5 h was 17.1%.

For the compound `Cn1cnnc1C1CCCN(C(=O)c2n[nH]c3ccccc23)C1` (configuration not stated), the cytotoxicity at 70.5 h was found to be 4.38%.

Regarding `CC(CNC(=O)Nc1cn[nH]c1)N1CCc2ccccc2C1` (configuration not stated), the cytotoxicity at 70.5 h is -7.18%. `CCn1cnnc1CNC(=O)N1CCCN(C(C)=O)CC1`: the cytotoxicity at 70.5 h is -11.8%. As for `CS(=O)(=O)NC1CCCN(C(=O)NCc2cc[nH]n2)C1` (configuration not stated), the cytotoxicity at 70.5 h was 10.8%. On to `O=C(CCc1nccs1)N1CCN(c2cccnn2)CC1`, for which the cytotoxicity at 70.5 h was -3.92%. Regarding `O=C(CCc1nccs1)N1CCN(c2ccc(Br)cn2)CC1`, the cytotoxicity at 70.5 h came out at 22.4%. As for `Cc1cn2c(n1)CCC(NC(=O)c1cnc(C)nc1C(C)C)C2` (configuration not stated), the figure is -9%; as for `CCc1nc(C2CCCN(C(=O)CN(C)S(C)(=O)=O)C2)no1` (configuration not stated), 3.45%. Regarding `Cc1n[nH]c(C2CN(C(=O)c3ccnc(C4CC4)n3)CCO2)n1` (configuration not stated), the cytotoxicity at 70.5 h was -10.4%. Turning to `CCNC(=O)N1CCCC(c2noc(CC)n2)C1` (configuration not stated), the cytotoxicity at 70.5 h is -3.02%. To `O=C(NCCC(=O)N1CCCc2ccccc21)c1c(O)cc(F)cc1F` belongs -9.76%; to `O=C(NCCC(=O)N1CCCCCC1)c1c(O)cc(F)cc1F`, 9.05%. As for `Cc1cc(CN2Cc3ccccc3CC2c2nnc(C)o2)on1` (configuration not stated), the figure is -6.94%; as for `Cc1cnn(CC2CCCN2C(=O)CCc2ccsc2)c1` (configuration not stated), -5.3%; as for `c1ccc(CCN2CCOC(Cn3cccn3)C2)nc1` (configuration not stated), -4.02%. Take `Cc1nc(C)n(CC2CCCN(CCC(=O)N3CCCCC3)C2)n1` (configuration not stated): the cytotoxicity at 70.5 h is -1.55%. On to `CCn1cnnc1CNC(=O)N1CCC(Cc2cccnc2)CC1`, for which the cytotoxicity at 70.5 h amounted to 34.8%.

Regarding `CCn1cc(CN2CCCN(C(=O)C3=NN(C)C(=O)CC3)CC2)cn1`, the cytotoxicity at 70.5 h was 17.3%. Turning to `Cc1nc(CN2CCCCC2Cn2cncn2)nc2ccccc12` (configuration not stated), the cytotoxicity at 70.5 h was 20.9%. To `Cc1nc(CN(C)C2CCN(Cc3ccno3)C2)no1` (configuration not stated) belongs 29.4%; to `O=C(CCNC(=O)c1ccoc1)NCc1ccccc1F`, -11%. In the case of `Cn1cnnc1C1CCCN(C(=O)c2ccc3c(c2)OCCCO3)C1` (configuration not stated), the cytotoxicity at 70.5 h is -2.02%.

As to `COCCOCc1cccc(NC(=O)N2CCCC2c2ccncc2)c1` (configuration not stated), the cytotoxicity at 70.5 h amounted to 1.97%.

Turning to `Cn1cnnc1C1CCCN(C(=O)NCc2ccc3c(c2)OCO3)C1` (configuration not stated), the cytotoxicity at 70.5 h is -0.469%. Regarding `c1cc(CN2CCN(Cc3cscn3)CC2)cs1`, the cytotoxicity at 70.5 h is -6.89%. As for `CCc1noc(C)c1C(=O)N(C)Cc1ncc(C)c(OC)c1C`, the figure is -30.2%; as for `O=C(CCc1ccccn1)N1CCN(C(=O)CC2CCCCC2)CC1`, -4.45%.

As to `Cc1nc(C)n(CC2CCCN2Cc2cc(C)on2)n1` (configuration not stated), the cytotoxicity at 70.5 h is -1.6%. Take `O=C1COc2c(cccc2C(=O)N2CCCCC2Cn2cccn2)N1` (configuration not stated): the cytotoxicity at 70.5 h is -4.26%. For `O=C(CC1CCCCC1)N1CCN(C(=O)NCc2ccccn2)CC1`, the cytotoxicity at 70.5 h is -9.56%. As to `CC(NC(=O)NCCOc1ccc(F)c(F)c1)c1nncn1C` (configuration not stated), the cytotoxicity at 70.5 h is -0.895%. To `Cc1cc(C)n(CC2CCCCN2Cc2cscn2)n1` (configuration not stated) belongs -13.4%; to `CNc1cc2c(nn1)CCN(C(=O)c1cc(F)cc(F)c1)C2`, -10%; to `CNc1cc2c(nn1)CCN(C(=O)c1ccc(-n3nccc3C)cc1)C2`, -5.27%. For `Cc1nc(C)n(CC2CCCN2Cc2cscn2)n1` (configuration not stated), the cytotoxicity at 70.5 h is -9.32%. For `CN1CCN(C(=O)CC2CCN(CCc3ccccn3)CC2)CC1`, the cytotoxicity at 70.5 h is -0.784%. Consider `Cc1nc(CN2CCCC(N(C)Cc3c(C)noc3C)C2)no1` (configuration not stated), for which the cytotoxicity at 70.5 h worked out at 10.6%.

Take `CC(C)c1nc2n(n1)CC(NCc1nc(-c3cccnc3)no1)CC2` (configuration not stated): the cytotoxicity at 70.5 h was determined as 21.9%. Regarding `CC(C)c1nccn1C1CCCN(C(=O)c2ccc3c(c2)OCO3)C1` (configuration not stated), the cytotoxicity at 70.5 h is -12.1%. For the compound `Cc1n[nH]c(C)c1NC(=O)CN1CCn2c(nnc2C(C)C)C1`, the cytotoxicity at 70.5 h was -7.95%. As for `CN(Cc1nnc(-c2ccco2)o1)CC1CCCN1c1cccnn1` (configuration not stated), the figure is 5.51%; as for `Cc1cc(CN(C)C(=O)C2CCS(=O)(=O)C2)no1` (configuration not stated), 2.42%; as for `CC(=O)Nc1nc(C(=O)NC(C)c2ccc3c(c2)OCCO3)cs1` (configuration not stated), -11.4%. Take `Cc1csc(CNC(=O)NCCc2ccc3c(c2)OCCO3)n1`: the cytotoxicity at 70.5 h is 20.8%.

For `Cc1noc(C2CCCN(C(=O)c3ccc(Br)o3)C2)n1` (configuration not stated), the cytotoxicity at 70.5 h is 19.7%. Turning to `CCCNC(=O)NC(=O)CN(CC(C)O)c1ccccc1` (configuration not stated), the cytotoxicity at 70.5 h is -3.55%. Take `CC(O)CN(CC(=O)NC(=O)NC1CC1)c1ccccc1` (configuration not stated): the cytotoxicity at 70.5 h was -11%.

For `O=C(Cc1ccc(-n2cccn2)cc1)N1CCCC(n2cccn2)C1` (configuration not stated), the cytotoxicity at 70.5 h came to 17.4%. To `Cc1cnn(C2CCCN(C(=O)c3ccn(C)c(=O)c3)C2)c1` (configuration not stated) belongs -11.3%; to `COc1ccccc1CC1CCCN(CCC#N)C1` (configuration not stated), -13.9%.

Source of the values: ChEMBL document CHEMBL3507680, “University of Dundee, Gates Library screen for HepG2 cell viability”.
